From ChEMBL document CHEMBL3351304, “Bioactive constituents from the green alga Caulerpa racemosa” (Bioorg Med Chem, 2015) come the findings set out here.

A short description of experiment [1]: Cytotoxicity against human HL60 cells by SRB assay. It counts as functional, cell-based. The settings on record: HL-60.
For experiment [2], the system named is A549. The experiment is described as follows: Cytotoxicity against human A549 cells by SRB assay. Format: functional, cell-based. Background: In SRB staining, fixed cells bind dye roughly in proportion to their protein.
Experiment [3] deals with T1, Tyrosine-protein phosphatase non-receptor type 1 (Homo sapiens, UniProt P18031).
T1 sequence (P18031 whole entry): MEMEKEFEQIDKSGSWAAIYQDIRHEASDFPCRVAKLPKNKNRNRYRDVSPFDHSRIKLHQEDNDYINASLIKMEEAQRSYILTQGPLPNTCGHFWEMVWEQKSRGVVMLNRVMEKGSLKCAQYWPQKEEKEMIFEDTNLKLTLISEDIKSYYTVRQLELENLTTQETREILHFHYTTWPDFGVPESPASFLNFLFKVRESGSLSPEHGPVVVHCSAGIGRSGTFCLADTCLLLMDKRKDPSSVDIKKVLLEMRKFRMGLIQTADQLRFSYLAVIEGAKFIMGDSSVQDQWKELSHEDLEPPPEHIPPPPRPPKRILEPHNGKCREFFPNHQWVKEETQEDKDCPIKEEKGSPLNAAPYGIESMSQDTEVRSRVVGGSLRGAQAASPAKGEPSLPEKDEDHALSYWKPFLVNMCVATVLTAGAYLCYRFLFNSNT
Description: Inhibition of purified recombinant PTP1B catalytic domain (unknown origin) using pNPP as substrate by spectrophotometry.

For experiment [4], the target named is T2, M-phase inducer phosphatase 2 (Homo sapiens, UniProt P30305).
T2 sequence (P30305 whole entry): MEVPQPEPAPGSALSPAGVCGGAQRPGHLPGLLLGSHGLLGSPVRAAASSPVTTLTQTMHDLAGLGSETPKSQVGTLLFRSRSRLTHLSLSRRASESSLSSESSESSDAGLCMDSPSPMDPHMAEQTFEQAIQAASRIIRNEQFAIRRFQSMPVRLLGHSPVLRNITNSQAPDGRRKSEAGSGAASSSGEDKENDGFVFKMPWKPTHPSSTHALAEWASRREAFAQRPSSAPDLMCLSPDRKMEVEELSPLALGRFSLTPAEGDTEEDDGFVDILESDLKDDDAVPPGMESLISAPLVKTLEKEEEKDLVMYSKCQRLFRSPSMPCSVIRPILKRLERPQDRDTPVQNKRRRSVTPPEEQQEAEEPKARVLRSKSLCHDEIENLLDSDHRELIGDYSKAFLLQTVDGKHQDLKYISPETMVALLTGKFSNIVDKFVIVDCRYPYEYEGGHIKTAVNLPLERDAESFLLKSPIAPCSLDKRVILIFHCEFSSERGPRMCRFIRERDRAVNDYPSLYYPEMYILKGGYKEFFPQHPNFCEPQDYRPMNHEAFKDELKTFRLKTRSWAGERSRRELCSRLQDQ
The experiment is described as follows: Inhibition of CDC25B (unknown origin) using pNPP as substrate by spectrophotometry.

Experiment [5] addresses T3, Tyrosine-protein phosphatase non-receptor type 6 (Homo sapiens, UniProt P29350). The experiment is described as follows: Inhibition of SHP1 (unknown origin) using pNPP as substrate at 20 ug/ml by spectrophotometry.
Experiment [6] concerns the target T4, Tyrosine-protein phosphatase non-receptor type 11 (Homo sapiens) (UniProt Q06124).
T4 sequence (whole entry): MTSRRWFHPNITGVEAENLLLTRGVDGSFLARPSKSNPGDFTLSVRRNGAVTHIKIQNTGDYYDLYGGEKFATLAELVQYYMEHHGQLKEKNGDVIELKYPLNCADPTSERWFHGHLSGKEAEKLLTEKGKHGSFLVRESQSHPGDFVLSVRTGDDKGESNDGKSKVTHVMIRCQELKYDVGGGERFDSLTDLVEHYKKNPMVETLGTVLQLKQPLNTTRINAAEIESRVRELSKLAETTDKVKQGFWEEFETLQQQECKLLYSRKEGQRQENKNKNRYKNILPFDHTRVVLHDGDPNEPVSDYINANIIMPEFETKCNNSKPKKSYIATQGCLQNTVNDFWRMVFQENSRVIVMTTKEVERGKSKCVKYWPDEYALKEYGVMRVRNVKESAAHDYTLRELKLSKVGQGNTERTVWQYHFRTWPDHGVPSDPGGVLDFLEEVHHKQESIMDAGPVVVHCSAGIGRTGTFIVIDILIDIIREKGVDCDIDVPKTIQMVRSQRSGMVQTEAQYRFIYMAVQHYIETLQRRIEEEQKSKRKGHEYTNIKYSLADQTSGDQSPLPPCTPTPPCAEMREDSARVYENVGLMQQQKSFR
The experiment is described as follows: Inhibition of SHP2 (unknown origin) using pNPP as substrate at 20 ug/ml by spectrophotometry.

The target in experiment [7] is T5, Tyrosine-protein phosphatase non-receptor type 2 (Homo sapiens, UniProt P17706).
T5 sequence (P17706 whole entry): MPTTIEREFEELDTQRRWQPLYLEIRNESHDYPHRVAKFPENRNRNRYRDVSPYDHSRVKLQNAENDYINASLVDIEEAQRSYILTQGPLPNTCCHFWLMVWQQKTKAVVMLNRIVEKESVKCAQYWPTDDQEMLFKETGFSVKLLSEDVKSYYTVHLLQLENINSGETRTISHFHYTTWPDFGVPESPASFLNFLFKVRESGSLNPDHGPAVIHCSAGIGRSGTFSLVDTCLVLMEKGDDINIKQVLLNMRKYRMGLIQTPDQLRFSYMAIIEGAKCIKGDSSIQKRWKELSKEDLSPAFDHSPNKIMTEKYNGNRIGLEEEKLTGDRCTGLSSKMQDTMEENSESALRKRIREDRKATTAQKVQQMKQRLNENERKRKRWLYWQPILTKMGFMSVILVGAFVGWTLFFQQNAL
Description: Inhibition of TC-PTP (unknown origin) using pNPP as substrate by spectrophotometry.

The target of experiment [8] is Receptor-type tyrosine-protein phosphatase F (Homo sapiens) (UniProt P10586). The experiment is described as follows: Inhibition of LAR (unknown origin) using pNPP as substrate at 20 ug/ml by spectrophotometry.
For experiment [9], the target named is T6, M-phase inducer phosphatase 2 (Homo sapiens) (UniProt P30305).
T6 sequence (whole entry): T2 sequence (P30305 whole entry)
The experiment is described as follows: Inhibition of CDC25B (unknown origin) using pNPP as substrate at 20 ug/ml by spectrophotometry.

The test system of experiment [10] is SH-SY5Y. The experiment is described as follows: Neuroprotective activity against amyloid beta(25 to 35)-induced cell damage in human SH-SY5Y cells assessed as increase in cell viability preincubated at 10 uM 2 hrs prior to challenge by MTT assay relative to control. Format: functional. In general terms: Tetrazolium assays rely on reduction of a dye to a coloured formazan, in cell work by metabolically active cells.

In experiment [11] the target is T7, Tyrosine-protein phosphatase non-receptor type 2 (Homo sapiens) (UniProt P17706).
T7 sequence (whole entry): T5 sequence (P17706 whole entry)
Description: Inhibition of TC-PTP (unknown origin) using pNPP as substrate at 20 ug/ml by spectrophotometry.

Experiment [12] concerns the target T3, Tyrosine-protein phosphatase non-receptor type 6.
Description: Inhibition of SHP1 (unknown origin) using pNPP as substrate by spectrophotometry

Chain of Receptor-type tyrosine-protein phosphatase F (Homo sapiens) (P10586 whole entry): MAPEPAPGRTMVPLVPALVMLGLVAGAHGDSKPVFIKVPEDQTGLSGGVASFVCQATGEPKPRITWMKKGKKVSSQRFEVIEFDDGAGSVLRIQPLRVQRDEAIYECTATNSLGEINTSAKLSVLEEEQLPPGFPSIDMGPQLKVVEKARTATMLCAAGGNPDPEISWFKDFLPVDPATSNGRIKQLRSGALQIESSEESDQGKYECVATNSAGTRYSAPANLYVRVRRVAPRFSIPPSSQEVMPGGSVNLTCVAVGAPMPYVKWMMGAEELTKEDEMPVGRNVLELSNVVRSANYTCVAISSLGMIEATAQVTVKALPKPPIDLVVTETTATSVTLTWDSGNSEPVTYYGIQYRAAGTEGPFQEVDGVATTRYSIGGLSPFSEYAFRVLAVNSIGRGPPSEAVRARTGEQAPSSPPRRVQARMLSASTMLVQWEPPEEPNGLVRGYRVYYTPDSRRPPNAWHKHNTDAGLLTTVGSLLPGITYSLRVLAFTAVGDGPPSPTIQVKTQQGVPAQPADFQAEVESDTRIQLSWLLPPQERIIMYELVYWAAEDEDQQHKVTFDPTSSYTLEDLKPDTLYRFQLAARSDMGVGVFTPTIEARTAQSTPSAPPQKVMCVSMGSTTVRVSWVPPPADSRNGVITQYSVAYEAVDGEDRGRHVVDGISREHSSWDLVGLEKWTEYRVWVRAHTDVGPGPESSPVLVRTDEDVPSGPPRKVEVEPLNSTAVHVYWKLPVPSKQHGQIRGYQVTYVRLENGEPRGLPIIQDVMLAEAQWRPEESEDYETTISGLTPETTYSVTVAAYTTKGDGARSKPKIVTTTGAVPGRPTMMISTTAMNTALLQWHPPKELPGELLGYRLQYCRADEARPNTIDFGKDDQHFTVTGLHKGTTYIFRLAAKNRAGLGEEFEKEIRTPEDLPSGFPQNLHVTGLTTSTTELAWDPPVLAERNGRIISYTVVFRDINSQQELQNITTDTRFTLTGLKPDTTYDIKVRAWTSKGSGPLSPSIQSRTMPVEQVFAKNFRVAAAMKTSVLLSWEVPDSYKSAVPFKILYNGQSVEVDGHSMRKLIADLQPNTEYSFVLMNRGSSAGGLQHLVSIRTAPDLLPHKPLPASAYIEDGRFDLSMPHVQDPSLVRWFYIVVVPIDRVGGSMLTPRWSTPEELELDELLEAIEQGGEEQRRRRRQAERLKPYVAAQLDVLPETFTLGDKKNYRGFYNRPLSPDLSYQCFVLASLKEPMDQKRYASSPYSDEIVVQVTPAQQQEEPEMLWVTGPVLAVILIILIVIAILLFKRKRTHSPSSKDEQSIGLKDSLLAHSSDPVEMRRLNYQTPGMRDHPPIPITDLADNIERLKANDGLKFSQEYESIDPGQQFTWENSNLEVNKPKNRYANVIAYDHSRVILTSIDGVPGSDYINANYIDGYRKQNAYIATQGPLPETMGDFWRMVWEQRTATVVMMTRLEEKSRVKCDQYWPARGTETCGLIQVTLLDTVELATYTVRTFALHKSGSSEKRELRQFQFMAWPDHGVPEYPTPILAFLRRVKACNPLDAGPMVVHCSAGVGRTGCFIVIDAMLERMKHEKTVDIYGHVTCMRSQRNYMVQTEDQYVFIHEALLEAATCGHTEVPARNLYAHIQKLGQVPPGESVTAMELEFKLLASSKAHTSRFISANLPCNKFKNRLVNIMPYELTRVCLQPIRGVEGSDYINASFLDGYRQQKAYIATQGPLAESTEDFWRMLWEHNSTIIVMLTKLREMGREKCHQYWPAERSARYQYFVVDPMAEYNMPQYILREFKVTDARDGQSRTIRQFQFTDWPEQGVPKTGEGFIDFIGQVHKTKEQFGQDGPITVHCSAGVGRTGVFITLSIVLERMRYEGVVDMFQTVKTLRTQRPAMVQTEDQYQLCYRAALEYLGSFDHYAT
T3 sequence (P29350 whole entry): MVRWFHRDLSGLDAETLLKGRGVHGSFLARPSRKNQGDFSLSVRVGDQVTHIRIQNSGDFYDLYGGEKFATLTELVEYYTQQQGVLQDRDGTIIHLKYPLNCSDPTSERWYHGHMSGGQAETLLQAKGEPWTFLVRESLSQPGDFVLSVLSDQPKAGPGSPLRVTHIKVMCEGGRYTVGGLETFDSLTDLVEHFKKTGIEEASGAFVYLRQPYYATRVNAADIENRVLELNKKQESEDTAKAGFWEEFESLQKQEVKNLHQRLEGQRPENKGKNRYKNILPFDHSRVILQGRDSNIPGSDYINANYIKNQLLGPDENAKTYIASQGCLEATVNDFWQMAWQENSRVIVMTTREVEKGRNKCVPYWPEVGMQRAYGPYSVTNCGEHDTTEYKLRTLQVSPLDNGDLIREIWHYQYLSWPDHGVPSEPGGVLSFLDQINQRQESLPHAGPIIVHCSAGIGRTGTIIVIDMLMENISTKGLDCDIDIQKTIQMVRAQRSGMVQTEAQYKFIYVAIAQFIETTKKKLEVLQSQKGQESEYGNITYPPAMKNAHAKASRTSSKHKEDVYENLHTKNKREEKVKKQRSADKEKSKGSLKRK

On to `CC1=CC(=O)OC1CC[C@H](C)CCC[C@H](C)CCCC(C)C` (stereo not given in full), for which it took 49.3 µM to reach half-maximal inhibition in experiment [1] (IC50).
Consider `CC(=O)[C@]1(O)C(C)=C(C)C(=O)[C@@]12CC[C@](C)(CCC[C@H](C)CCC[C@H](C)CCCC(C)C)O2`, for which the IC50 – broadly, the concentration that gives 50% inhibition – in experiment [1] is 67.4 µM; in experiment [2] it was above 100 µM.
As for `CC1=C(CCC(=O)OC/C=C(\C)CCC[C@H](C)CCC[C@H](C)CCCC(C)C)C(=O)NC1=O`, the IC50 in experiment [3] was 2.3 µM; in experiment [4] it was 42.9 µM; in [1], above 100 µM; in experiment [7], 12.6 µM; in experiment [2], above 100 µM. Besides, the inhibition in experiment [5], in experiment [6] and in experiment [8] was below 50% each time.
As to `CC1=C(C)C(=O)[C@@]2(CC[C@@](C)(CCC[C@H](C)CCC[C@H](C)CCCC(C)C)O2)[C@@](C)(O)C1=O`, the IC50 in experiment [3] is 11 µM; in experiment [1], above 100 µM; in [2] it was above 100 µM. The inhibition in experiment [9], in experiment [5], in [6], in experiment [11] and in experiment [8] was below 50% each time. Moreover, the Activity in experiment [10] was 13.85%.
Molecule SODIUM ORTHOVANAD registered an IC50 in experiment [12] of 16.5 µM.
As for `O=C(O[C@@H]1Cc2c(O)cc(O)cc2O[C@@H]1c1cc(O)c(O)c(O)c1)c1cc(O)c(O)c(O)c1` [EPIGALOCATECHIN GALLATE], the Activity in experiment [10] stood at 16.57%.
With `CC(=O)/C(=C/C[C@@H](C)[C@H]1CC[C@H]2[C@@H]3CC=C4C[C@@H](O)CC[C@]4(C)[C@H]3CC[C@]12C)C(C)C`, the figures for the half-inhibitory concentration (IC50) in [3], in experiment [1] and in experiment [2] were 3.8 µM, above 100 µM and above 100 µM, respectively. Moreover, the inhibition in experiment [9], in experiment [5], in experiment [6], in experiment [11] and in experiment [8] was below 50% throughout. Also, in [10], the Activity was 11.31%.
On to `CC(=O)OC/C=C(\C)CCC[C@H](C)CCC[C@H](C)CCCC(C)C`, for which the IC50 in [3] was 50 µM; in experiment [1], above 100 µM; in experiment [2] it was above 100 µM. For the same molecule, the inhibition in experiment [9], in experiment [5], in experiment [6], in [11] and in experiment [8] was below 50% each time.
For `CC(C)C(=O)/C=C/[C@@H](C)[C@H]1CC[C@H]2[C@@H]3CC=C4C[C@@H](O)CC[C@]4(C)[C@H]3CC[C@]12C`, the IC50 in experiment [3] was 50 µM; in experiment [1], above 100 µM; in experiment [2], above 100 µM. For the same molecule, the inhibition in [9], in [5], in experiment [6], in experiment [11] and in [8] was below 50% throughout. In addition, the Activity in experiment [10] is reported as 15.98%.
`C=C[C@](O)(CC[C@@H](C)[C@H]1CC[C@H]2[C@@H]3CC=C4C[C@@H](O)CC[C@]4(C)[C@H]3CC[C@]12C)C(C)C`: the results for the IC50 in experiment [3], in experiment [1] and in experiment [2] were 41.7 µM, above 100 µM and above 100 µM, respectively. For the same molecule, the inhibition in experiment [9], in experiment [5], in experiment [6], in experiment [11] and in experiment [8] was below 50% each time.
With `C=C[C@@](O)(CC[C@@H](C)[C@H]1CC[C@H]2[C@@H]3CC=C4C[C@@H](O)CC[C@]4(C)[C@H]3CC[C@]12C)C(C)C`, the IC50 in experiment [3] is 10.3 µM; in experiment [1] it was above 100 µM; in experiment [2], above 100 µM. For the same molecule, the inhibition in experiment [9], in [5], in [6], in experiment [11] and in experiment [8] was below 50% throughout.
Turning to `CC1(C)CC[C@]2(C(=O)O)CC[C@]3(C)C(=CC[C@@H]4[C@@]5(C)CC[C@H](O)C(C)(C)[C@@H]5CC[C@]43C)[C@@H]2C1` [OLEANOLIC_ACID], in experiment [4], the IC50 worked out at 0.98 µM. The inhibition in [5], in experiment [6] and in experiment [8] was below 50% each time.
On to `C/C(=C\CO)CCC[C@H](C)CCC[C@H](C)CCCC(C)C` [TRANS-PHYTOL], for which the results for the IC50 in [3], in [1] and in [2] were 32.6 µM, above 100 µM and above 100 µM, respectively. Moreover, the inhibition in experiment [9], in experiment [5], in [6], in experiment [11] and in experiment [8] was below 50% each time.
In the case of `COc1cccc2c1C(=O)c1c(O)c3c(c(O)c1C2=O)C[C@@](O)(C(=O)CO)C[C@@H]3O[C@H]1C[C@H](N)[C@H](O)[C@H](C)O1` [DOXORUBICIN], the IC50 in experiment [1] turned out to be 0.123 µM.
As to `CC1=C(C)C(=O)C(CC[C@](C)(O)CCC[C@H](C)CCC[C@H](C)CCCC(C)C)=C(C)C1=O`, the IC50 in experiment [3] was determined as 3.85 µM; in [4], 23.2 µM; in [1], 45 µM; in experiment [7] it was 35.1 µM; in [2], 85.3 µM. The inhibition in experiment [5], in experiment [6] and in [8] was below 50% each time.
